Test results from ChEMBL document CHEMBL5370525, “Antibiotics with novel mode of action as new weapons to fight antimicrobial resistance” (Eur J Med Chem, 2023).
Values after ≈ are worked out from the molar mass of the structure shown. Blank lines part the entries; values can stand above or below the compound they belong to.

Legend:
Staphylococcus aureus [1] = experiment: Antibacterial activity against Daptomycin non-susceptible Staphylococcus aureus clinical isolate assessed as inhibition of bacterial growth by CLSI-based broth microdilution method; format: functional
[2] = Volume of distribution at steady state in BALB/c mouse at 24 mg/kg, iv by LC/MS-MS analysis; format: ADME, organism-based; conditions: in vivo, read-out: Vdss
Staphylococcus aureus [3] = experiment: Antibacterial activity against methicillin-resistant Staphylococcus aureus ATCC 33591 infected in mouse assessed as log reduction in bacterial CFU in thigh 120 mg/kg, po measured after 24 hrs; format: functional
Staphylococcus aureus [4] = experiment: Antibacterial activity against Linezolid non-susceptible Staphylococcus aureus clinical isolate assessed as inhibition of bacterial growth by CLSI-based broth microdilution method; format: functional
HeLa = experiment: Cytotoxicity against human HeLa cells assessed as inhibition of cell growth by MTT assay; format: functional, cell-based
Staphylococcus aureus [5] = experiment: Antibacterial activity against Vancomycin-resistant Staphylococcus aureus clinical isolate assessed as inhibition of bacterial growth by CLSI-based broth microdilution method; format: functional
Staphylococcus aureus [6] = experiment: Antibacterial activity against Meticillin-Resistant Staphylococcus aureus clinical isolate assessed as inhibition of bacterial growth by CLSI-based broth microdilution method; format: functional
Staphylococcus aureus [7] = experiment: Antibacterial activity against Vancomycin-intermediate Staphylococcus aureus clinical isolate assessed as inhibition of bacterial growth by CLSI-based broth microdilution method; format: functional
[8] = Oral bioavailability in BALB/c mouse at 32 mg/kg by LC/MS-MS analysis; format: ADME, organism-based; conditions: in vivo
[9] = Cytotoxicity against MDCK cells assessed as inhibition of cell growth by MTT assay; format: toxicity, cell-based, Canis lupus familiaris; conditions: dog
[10] = Toxicity in Syrian hamster infected with clindamycin resistant Clostridium difficile ATCC 43596 assessed as survival rate at 5 mg/kg, po administered twice a day and measured after 33 days; format: organism-based, Mesocricetus auratus; conditions: in vivo, 792 h, time 33 day
[11] = Toxicity in Syrian hamster infected with clindamycin resistant Clostridium difficile ATCC 43596 assessed as survival rate at 0.5 mg/kg, po administered twice a day and measured after 33 days; format: organism-based, Mesocricetus auratus; conditions: in vivo, 792 h, time 33 day
[12] = Toxicity in Syrian hamster infected with clindamycin resistant Clostridium difficile ATCC 43596 assessed as animal survival at 5 mg/kg, po administered twice a day and measured after 25 days; format: organism-based, Mesocricetus auratus; conditions: in vivo, 600 h, time 25 day
[13] = Plasma protein binding in mouse at 0.2 to 10 ug/ml by equilibrium dialysis; format: ADME, cell-free; conditions: at 0.2 to 10 µg/mL, dose 0.2-10 µg/ml, read-out: PPB
[14] = Cmax in mouse at 1 mg/kg, po incubated for 24 hrs by LC-MS-MS analysis; format: ADME, organism-based; design: time 24 hrs, dose 1 mg/kg, route po; conditions: in vivo
[15] = AUC (0 to t) in mouse at 0.6 mg/kg, po incubated for 24 hrs by LC-MS-MS analysis; format: ADME, organism-based; design: dose 0.6 mg/kg, time 24 hrs, route po; conditions: in vivo
Staphylococcus aureus [16] = experiment: Antibacterial activity against Staphylococcus aureus smith infected CD-1 mouse assessed as survival rate at 1 mg/kg, po relative to control; format: functional
Staphylococcus aureus [17] = experiment: Post antibiotic effect against methicillin sensitive Staphylococcus aureus 29213 at 128 times of MIC incubated for 4 hrs by; format: functional
[18] = Cmax in mouse at 0.3 mg/kg, po incubated for 24 hrs by LC-MS-MS analysis; format: ADME, organism-based; design: dose 0.3 mg/kg, time 24 hrs, route po; conditions: in vivo
[19] = Elimination half life in mouse at 0.3 to 1 mg/kg, po incubated for 24 hrs by LC-MS/MS analysis; format: ADME, organism-based; conditions: in vivo, dose 0.3-1 mg/kg, read-out: beta t1/2 (converted)
[20] = Plasma protein binding in dog at 0.2 to 10 ug/ml by equilibrium dialysis; format: ADME, cell-free, Canis lupus familiaris; conditions: at 0.2 to 10 µg/mL, dose 0.2-10 µg/ml, read-out: PPB
[21] = AUC (0 to t) in mouse at 1 mg/kg, po incubated for 24 hrs by LC-MS-MS analysis; format: ADME, organism-based; design: dose 1 mg/kg, time 24 hrs, route po; conditions: in vivo
[22] = Plasma protein binding in Sprague-Dawley rat at 0.2 to 10 ug/ml by equilibrium dialysis; format: ADME, cell-free; conditions: at 0.2 to 10 µg/mL, dose 0.2-10 µg/ml, read-out: PPB
Staphylococcus aureus [23] = experiment: Antibacterial activity against Staphylococcus aureus clinical isolate assessed as bacterial growth inhibtion by CLSI-based broth microdilution method; format: functional
[24] = AUC (0 to t) in mouse at 0.3 mg/kg, po incubated for 24 hrs by LC-MS-MS analysis; format: ADME, organism-based; design: dose 0.3 mg/kg, time 24 hrs, route po; conditions: in vivo
Staphylococcus aureus [25] = experiment: Antibacterial activity against Staphylococcus aureus smith infected oral dosed CD-1 mouse; format: functional
[26] = Plasma protein binding in human at 0.2 to 10 ug/ml by equilibrium dialysis; format: ADME, cell-free; conditions: at 0.2 to 10 µg/mL, dose 0.2-10 µg/ml, read-out: PPB
[27] = Cmax in mouse at 0.6 mg/kg, po incubated for 24 hrs by LC-MS-MS analysis; format: ADME, organism-based; design: dose 0.6 mg/kg, time 24 hrs, route po; conditions: in vivo
Staphylococcus aureus [28] = experiment: Post antibiotic effect against methicillin sensitive Staphylococcus aureus 29213 at 32 times of MIC incubated for 4 hrs by; format: functional
[29] = Binding affinity to N-terminal His-tagged Full-length Streptococcus pneumoniae MetRS1 expressed in Escherichia coli assessed as inhibition constant by tRNA aminoacylation/ATP:PPi assay
[30] = Oral bioavailability in hamster; format: ADME, organism-based, Mesocricetus auratus; conditions: in vivo
[31] = Oral bioavailability in Sprague-Dawley rat; format: ADME, organism-based; conditions: in vivo
Actinomyces sp. = experiment: Antibacterial activity against Actinomyces sp. clinical isolates assessed as inhibition of bacterial growth incubated for 48 hrs by CLSI-based Serial 2-fold dilution; format: functional
[32] = Binding affinity to N-terminal His-tagged Full-length Escherichia coli MetRS2 expressed in Escherichia coli assessed as inhibition constant by tRNA aminoacylation/ATP:PPi assay
[33] = Binding affinity to N-terminal His-tagged Full-length Haemophilus influenzae MetRS2 expressed in Escherichia coli assessed as inhibition constant by tRNA aminoacylation/ATP:PPi assay
[34] = Binding affinity to N-terminal His-tagged Full-length Staphylococcus aureus MetRS1 expressed in Escherichia coli assessed as inhibition constant by tRNA aminoacylation/ATP:PPi assay
Staphylococcus aureus [35] = experiment: Antibacterial activity against Meticillin-resistant Staphylococcus aureus clinical isolates assessed as inhibition of bacterial growth incubated for 44 hrs by CLSI-based broth microdilution assay; format: functional
Klebsiella pneumoniae = experiment: Antibacterial activity against Klebsiella pneumoniae clinical isolates assessed as inhibition of bacterial growth incubated for 44 hrs by CLSI-based broth microdilution assay; format: functional
Pseudomonas aeruginosa = experiment: Antibacterial activity against Pseudomonas aeruginosa clinical isolates assessed as inhibition of bacterial growth incubated for 44 hrs by CLSI-based broth microdilution assay; format: functional
Acinetobacter baumannii = experiment: Antibacterial activity against Acinetobacter baumannii clinical isolates assessed as inhibition of bacterial growth incubated for 44 hrs by CLSI-based broth microdilution assay; format: functional
Lactobacillus sp. = experiment: Antibacterial activity against Lactobacillus sp. clinical isolates assessed as inhibition of bacterial growth incubated for 48 hrs by CLSI-based Serial 2-fold dilution; format: functional
[36] = Oral bioavailability in Beagle dog; format: ADME, organism-based, Canis lupus familiaris; conditions: in vivo
[37] = Binding affinity to N-terminal His-tagged Full-length human mitochondrial MetRS1 expressed in Escherichia coli assessed as inhibition constant by tRNA aminoacylation/ATP:PPi assay; format: mitochondria, Mitochondria
Bifidobacterium sp. = experiment: Antibacterial activity against Bifidobacterium sp. clinical isolates assessed as inhibition of bacterial growth incubated for 48 hrs by CLSI-based Serial 2-fold dilution; format: functional
[38] = Binding affinity to N-terminal His-tagged Full-length human cytoplasmic MetRS2 expressed in Escherichia coli assessed as inhibition constant by tRNA aminoacylation/ATP:PPi assay; format: subcellular, Cytoplasm
Enterococcus faecium = experiment: Antibacterial activity against Vancomycin-resistant Enterococcus faecium clinical isolates assessed as inhibition of bacterial growth incubated for 44 hrs by CLSI-based broth microdilution assay; format: functional
Clostridioides difficile [39] = experiment: Antibacterial activity against Clostridium difficile clinical isolates assessed as inhibition of bacterial growth incubated for 44 hrs by CLSI-based broth microdilution assay; format: functional
[40] = Binding affinity to N-terminal His-tagged Full-length Clostridium difficile MetRS1 expressed in Escherichia coli assessed as inhibition constant by tRNA aminoacylation/ATP:PPi assay; design: species or system Clostridioides difficile
Escherichia coli = experiment: Antibacterial activity against Escherichia coli clinical isolates assessed as inhibition of bacterial growth incubated for 44 hrs by CLSI-based broth microdilution assay; format: functional
Clostridioides difficile [41] = experiment: Antibacterial activity against Clostridium difficile clinical isolates assessed as inhibition of bacterial growth; format: functional

Compound: CN1CCC(C(=O)NC(=O)c2c(F)ccc(OCc3nc4cc(C(F)(F)F)cnc4s3)c2F)CC1
MIC (Staphylococcus aureus [1]): 1 µg/mL (≈ 1.94 µM)
Vd [2]: 2.02 L/kg
log(activity) (Staphylococcus aureus [3]): 2
MIC (Staphylococcus aureus [4]): 1 µg/mL (≈ 1.94 µM)
IC50 (HeLa): > 120 µg/mL
MIC (Staphylococcus aureus [5]): 1 µg/mL (≈ 1.94 µM)
MIC (Staphylococcus aureus [6]): 1 µg/mL (≈ 1.94 µM)
MIC (Staphylococcus aureus [7]): 1 µg/mL (≈ 1.94 µM)
bioavailability [8]: 1%
IC50 [9]: > 120 µg/mL

Compound: Cl.Cl.O=c1cc(NCCCN[C@@H]2CCOc3c(Br)cc(Br)cc32)[nH]c2ccsc12
Survival [10]: 75%
Survival [11]: 62%
Activity [12]: Toxic

Compound: Cc1c(CN(C)C(=O)/C=C/c2cnc3c(c2)CCC(=O)N3COP(=O)(O)O)oc2ccccc12 [AFABICIN]
fraction unbound [13]: < 0.05
Cmax [14]: 304 ng/mL
AUC(0-t) at 24 h [15]: 196 ng·h/mL
survival at 1 mg/kg (Staphylococcus aureus [16]): 100%
PAE (Staphylococcus aureus [17]): 1.1 h
Cmax [18]: 154 ng/mL
half-life [19]: 5 h
fraction unbound [20]: < 0.05
AUC(0-t) at 24 h [21]: 1030 ng·h/mL
fraction unbound [22]: < 0.05
MIC90 (Staphylococcus aureus [23]): < 0.015 µg/mL
AUC(0-t) at 24 h [24]: 367 ng·h/mL
ED50 (Staphylococcus aureus [25]): 0.15 mg/kg
fraction unbound [26]: < 0.05
Cmax [27]: 196 ng/mL
PAE (Staphylococcus aureus [28]): 0.1 h

Compound: O=c1cc(NCCCN[C@@H]2CCOc3c(Br)cc(Br)cc32)[nH]c2ccsc12 [CRS-3123]
Ki [29]: 0.08 nM
bioavailability [30]: 0.6%
bioavailability [31]: < 1%
MIC (Actinomyces sp.): > 32 µg/mL
Ki [32]: 1900 nM
Ki [33]: 178 nM
Ki [34]: 0.017 nM
MIC (Staphylococcus aureus [35]): 0.015 µg/mL (≈ 0.0292 µM)
MIC (Klebsiella pneumoniae): > 32 µg/mL
MIC (Pseudomonas aeruginosa): > 32 µg/mL
MIC (Acinetobacter baumannii): > 32 µg/mL
MIC (Lactobacillus sp.): > 32 µg/mL
bioavailability [36]: < 1%
Ki [37]: 28 nM
MIC (Bifidobacterium sp.): > 32 µg/mL
Ki [38]: > 20000 nM
MIC (Enterococcus faecium): < 0.004 µg/mL
MIC (Clostridioides difficile [39]): 0.5 µg/mL (≈ 0.974 µM)
Ki [40]: 0.02 nM
MIC (Escherichia coli): > 32 µg/mL

MIC (Clostridioides difficile [41]): 0.15 µg/mL (≈ 0.142 µM)
Compound: CCc1c(Cl)c(O)c(Cl)c(O)c1C(=O)O[C@H]1[C@H](O)[C@H](OC)[C@H](OC/C2=C\C=C\C[C@H](O)/C(C)=C/[C@H](CC)[C@@H](O[C@@H]3OC(C)(C)[C@@H](OC(=O)C(C)C)[C@H](O)[C@@H]3O)/C(C)=C/C(C)=C/C[C@@H]([C@@H](C)O)OC2=O)O[C@@H]1C [FIDAXOMICIN]
